Results as given in patent US12649733B2, “3,6-diamino-pyridazin-3-yl derivatives, pharmaceutical compositions containing them and their uses as pro-apoptotic agents” (LES LABORATOIRES SERVIER, priority 2019, dated 2026).

What was measured:
BCLXL = BCLXL (Homo sapiens, UniProt Q07817, V10N/V9A); experiment: Fluorescence polarisation assay (PUMA-based probe displacement); assay type: binding; note: 20 nM protein, 10 nM fluorescent probe
Protocol: Fluorescence polarization measures the rotation of a fluorescing species in solution, the larger the molecule the more polarized the fluorescence emission.
[[…]] (GST UniProtKB® primary accession number P08515 and BCLXL UniProtKB® primary accession number Q07817-1),
resulting in an increase in anisotropy. If a compound is added which competitively binds to the same site as the probe, thereby releasing it, anisotropy decreases due to the increased amount of free probe.
An 11-point serial dilution of each compound was prepared in DMSO, the final buffer conditions were 10 mM 4-(2-hydroxyethyl)-1-piperazineethanesulfonic acid [HEPES], 150 mM NaCl, 0.05% Tween 20, pH 7.4 and 5% DMSO. The final protein concentration in the assay was 20 nM with the fluorescent probe present at 10 nM. The experiments were incubated for 2 hours at 23° C. before fluorescence polarization was measured on a Biotek SynergyNeo plate reader (Excitation 485 nm, emission 525 nm, parallel and perpendicular reads). […] The KI values were determined from the IC50 values according to Cer et al, Nucleic Acids Res, 2009, Jul. 1: 37(WebServer issue): W441-W445.

H146 cells = experiment: H146 cell viability, MTT assay; assay type: cell-based; settings: Homo sapiens, NCI-H146, 48 h, 48 h exposure
Protocol: (§1) MTT colorimetric assay is based on the mitochondrial reduction of tetrazolium salt by living cells. The viable cell number is proportional to the production of formazan salts, which can be read spectrophotometrically at 540 nm.
(§2) MOLT-4 and H146 cells were purchased from ATCC and cultivated in RPMI 1640 supplemented with 10% heat inactivated fetal bovine serum, penicillin (100 IU/ml), streptomycin (100 μg/ml) and L-glutamine (2 mM). Cells were cultured at 37° C. in a humidified atmosphere containing 5% CO2. Cells were seeded in 96 microwell plates (150 μL per well) and exposed to the compounds for 48 h (3.16 fold serially diluted; 9 concentrations each, triplicates). At the end of incubation time, 15 μL of MTT solution (5 mg/ml) were added per well and the cells were incubated for another 4 h. Then, 100 μL of 10% Sodium Dodecyl Sulfate (SDS)/HCl 10 mM were added per well and the plate was incubated overnight, before measurement of optical density at 540 nm. IC50s were calculated using standard four-parametric curve fitting.

MOLT-4 cells = experiment: MOLT-4 cell viability, MTT assay; assay type: cell-based; settings: Homo sapiens, MOLT-4, 48 h, 48 h exposure
Protocol: as §1, §2

Chain of BCLXL (Q07817 with tags, fused parts or gaps V9A/V10N): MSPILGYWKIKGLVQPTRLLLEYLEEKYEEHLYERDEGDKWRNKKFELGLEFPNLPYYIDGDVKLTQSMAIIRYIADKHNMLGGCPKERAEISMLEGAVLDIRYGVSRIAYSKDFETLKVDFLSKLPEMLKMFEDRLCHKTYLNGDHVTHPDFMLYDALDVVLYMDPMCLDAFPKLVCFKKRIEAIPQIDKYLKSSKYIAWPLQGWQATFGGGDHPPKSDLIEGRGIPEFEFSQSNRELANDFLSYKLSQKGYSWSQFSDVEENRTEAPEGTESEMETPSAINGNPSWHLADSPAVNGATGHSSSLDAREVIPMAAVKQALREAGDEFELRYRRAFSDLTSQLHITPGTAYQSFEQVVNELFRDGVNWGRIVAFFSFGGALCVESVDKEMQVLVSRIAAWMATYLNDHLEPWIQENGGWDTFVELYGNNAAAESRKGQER

| SMILES | Ki (BCLXL) [nM] | IC50 (H146 cells) [nM] | IC50 (MOLT-4 cells) [nM] |
| --- | --- | --- | --- |
| Cc1c(Nc2cccc(C(=O)O)n2)nnc(Nc2nc3ccccc3s2)c1C [Example 2, 6-({6-[(1,3-Benzothiazol-2-yl)amino]-4,5-dimethylpyridazin-3-yl}amino)pyridine-2-carboxylic acid] | 330 | 12500 |  |
| CC(C)c1cc(Nc2nc(C(=O)O)cs2)nnc1Nc1nc2ccccc2s1 [Example 5, 2-({6-[(1,3-Benzothiazol-2-yl)amino]-5-(propan-2-yl)pyridazin-3-yl}amino)-1,3-thiazole-4-carboxylic acid] | 180 | 8210 |  |
| CC(C)c1cc(Nc2nc3ccccc3s2)nnc1Nc1nc(C(=O)O)cs1 [Example 6, 2-({6-[(1,3-Benzothiazol-2-yl)amino]-4-(propan-2-yl)pyridazin-3-yl}amino)-1,3-thiazole-4-carboxylic acid] | 490 | > 44900 |  |
| Cc1c(Nc2nc3ccccc3s2)nnc(Nc2nc(C(=O)O)cs2)c1C(C)C [Example 8, 2-({6-[(1,3-Benzothiazol-2-yl)amino]-5-methyl-4-(propan-2-yl)pyridazin-3-yl}amino)-1,3-thiazole-4-carboxylic acid] | 87 | 10500 |  |
| Cc1c(Nc2nc(C(=O)O)c(CCCOc3ccccc3)s2)nnc(Nc2nc3ccccc3s2)c1C [Example 9, 2-({6-[(1,3-Benzothiazol-2-yl)amino]-4,5-dimethylpyridazin-3-yl}amino)-5-(3-phenoxypropyl)-1,3-thiazole-4-carboxylic acid] | 4 | 207 | 2320 |
| Cc1c(Nc2nc(C(=O)O)cs2)nnc(Nc2nc3ccccc3s2)c1C(C)C [Example 10, 2-({6-[(1,3-Benzothiazol-2-yl)amino]-4-methyl-5-(propan-2-yl)pyridazin-3-yl}amino)-1,3-thiazole-4-carboxylic add] | 410 | 8310 |  |
| COCCCc1sc(Nc2nnc(Nc3nc4ccccc4s3)c(C)c2C)nc1C(=O)O [Example 12] | 27 | 913 | 1620 |
| Cc1c(Nc2nc(C(=O)O)c(CCCOc3ccccc3F)s2)nnc(Nc2nc3ccccc3s2)c1C [Example 13, 2-({6-[(1,3-Benzothiazol-2-yl)amino]-4,5-dimethylpyridazin-3-yl}amino)-5-[3-(2-fluorophenoxy)propyl]-1,3-thiazole-4-carboxylic acid] | 3.8 | 292 | 2230 |
| Cc1c(Nc2nc(C(=O)O)c(CCCOc3ccc(C(=O)N(C)C)cc3F)s2)nnc(Nc2nc3ccccc3s2)c1C [Example 14, 2-({6-[(1,3-Benzothiazol-2-yl)amino]-4,5-dimethylpyridazin-3-yl}amino)-5-{3-[4-(dimethylcarbamoyl)-2-fluorophenoxy]propyl}-1,3-thiazole-4-carboxylic acid] | 3.2 | 2110 |  |
| CCc1c(Nc2nc(C(=O)O)cs2)nnc(Nc2nc3ccccc3s2)c1C [Example 15, 2-({6-[(1,3-Benzothiazol-2-yl)amino]-4-ethyl-5-methylpyridazin-3-yl}amino)-1,3-thiazole-4-carboxylic acid] | 37 | > 15000 |  |
| CCc1c(Nc2nc3ccccc3s2)nnc(Nc2nc(C(=O)O)cs2)c1C [Example 16, 2-({6-[(1,3-Benzothiazol-2-yl)amino]-5-ethyl-4-methylpyridazin-3-yl}amino)-1,3-thiazole-4-carboxylic acid] | 52 | 8040 |  |

Now from value to compound:

| Ki (BCLXL) [nM] | IC50 (H146 cells) [nM] | IC50 (MOLT-4 cells) [nM] | SMILES |
| --- | --- | --- | --- |
| 78 | > 15000 |  | Cc1c(Nc2nc3ccccc3s2)nnc(Nc2nc(C(=O)O)cs2)c1CO [Example 18, 2-({6-[(1,3-Benzothiazol-2-yl)amino]-4-(hydroxymethyl)-5-methylpyridazin-3-yl}amino)-1,3-thiazole-4-carboxylic acid] |
| 30 | ≥ 12800 |  | Cc1c(Nc2nc3ccccc3s2)nnc(Nc2nc(C(=O)O)cs2)c1C1CC1 [Example 19, 2-({6-[(1,3-Benzothiazol-2-yl)amino]-4-cyclopropyl-5-methylpyridazin-3-yl}amino)-1,3-thiazole-4-carboxylic acid] |
| 2.9 | 2130 |  | Cc1c(Nc2nc(C(=O)O)c(CCCOc3ccc(CCCN(C)C)cc3F)s2)nnc(Nc2nc3ccccc3s2)c1C [Example 22, 2-({6-[(1,3-Benzothiazol-2-yl)amino]-4,5-dimethylpyridazin-3-yl}amino)-5-(3-{4-[3-(dimethylamino)propyl]-2-fluorophenoxy}propyl)-1,3-thiazole-4-carboxylic acid] |
| 40 | ≥ 12700 | 13000 | O=C(O)c1csc(Nc2nnc(Nc3nc4ccccc4s3)c3c2CCC3)n1 [Example 23, 2-[[1-(1,3-Benzothiazol-2-ylamino)-6,7-dihydro-5H-cyclopenta[d]pyridazin-4-yl]amino]thiazole-4-carboxylic acid] |
| 140 | 6930 | 3310 | O=C(O)c1cccc(Nc2nnc(Nc3nc4ccccc4s3)c3c2CCCC3)n1 [Example 24, 6-[[4-(1,3-Benzothiazol-2-ylamino)-5,6,7,8-tetrahydrophthalazin-1-yl]amino]pyridine-2-carboxylic acid] |
| 990 | 3180 | 7130 | O=C(O)c1cccc(Nc2nnc(Nc3nc4ccccc4s3)c3c2CCC3)n1 [Example 25, 6-[[4-(1,3-benzothiazol-2-ylamino)-6,7-dihydro-5H-cyclopenta[d]pyridazin-1-yl]amino]pyridine-2-carboxylic acid] |
| 14 |  |  | Cc1cc(N(CC(O)CO)c2nc(C(=O)O)cs2)nnc1Nc1nc2ccccc2s1 (stereo not shown) [Example 103, 2-[[6-(1,3-Benzothiazol-2-ylamino)-5-methyl-pyridazin-3-yl]-(2,3-dihydroxypropyl)amino]thiazole-4-carboxylic acid] |
| 16 |  |  | Cc1cc(N(CCCC(O)CO)c2nc(C(=O)O)cs2)nnc1Nc1nc2ccccc2s1 (stereo not shown) [Example 104, 2-[[6-(1,3-Benzothiazol-2-ylamino)-5-methyl-pyridazin-3-yl]-(4,5-dihydroxypentyl)amino]thiazole-4-carboxylic acid] |
| 130 |  |  | Cc1cc(N(CC(CO)N2CCOCC2)c2nc(C(=O)O)cs2)nnc1Nc1nc2ccccc2s1 (stereo not shown) [Example 107, 2-[[6-(1,3-Benzothiazol-2-ylamino)-5-methyl-pyridazin-3-yl]-(3-hydroxy-2-morpholino-propyl)amino]thiazole-4-carboxylic acid] |
| 1300 |  |  | Cc1cc(N(C)c2nc(C(=O)O)c(C3CN(S(C)(=O)=O)C3)s2)nnc1Nc1nc2ccccc2s1 [Example 149, 2-({6-[(1,3-Benzothiazol-2-yl)amino]-5-methylpyridazin-3-yl}(methyl)amino)-5-(1-methanesulfonylazetidin-3-yl)-1,3-thiazole-4-carboxylic acid] |
| 890 |  |  | Cc1cc(N(C)c2nc(C(=O)O)c(C3CN(CC(C)C)C3)s2)nnc1Nc1nc2ccccc2s1 [Example 156, 2-({6-[(1,3-Benzothiazol-2-yl)amino]-5-methylpyridazin-3-yl}(methyl)amino)-5-[1-(2-methylpropyl)azetidin-3-yl]-1,3-thiazole-4-carboxylic acid] |
| 1200 |  |  | Cc1cc(N(C)c2nc(C(=O)O)c(C3CN(C)C3)s2)nnc1Nc1nc2ccccc2s1 [Example 157, 2-({6-[(1,3-Benzothiazol-2-yl)amino]-5-methylpyridazin-3-yl}(methyl)amino)-5-(1-methylazetidin-3-yl)-1,3-thiazole-4-carboxylic acid] |
| 43 |  |  | Cc1cc(N(CCCC(=O)O)c2nc(C(=O)O)cs2)nnc1Nc1nc2ccccc2s1 [Example 158, 2-({6-[(1,3-Benzothiazol-2-yl)amino]-5-methylpyridazin-3-yl}(3-carboxypropyl)amino)-1,3-thiazole-4-carboxylic acid] |
| 180 |  |  | Cc1cc(N(C)c2nc(C(=O)O)c(C3CN(C(=O)NCc4ccccc4)C3)s2)nnc1Nc1nc2ccccc2s1 [Example 159, 2-({6-[(1,3-Benzothiazol-2-yl)amino]-5-methylpyridazin-3-yl}(methyl)amino)-5-[1-(benzylcarbamoyl)azetidin-3-yl]-1,3-thiazole-4-carboxylic acid] |
| 220 |  |  | CCNC(=O)N1CC(c2sc(N(C)c3cc(C)c(Nc4nc5ccccc5s4)nn3)nc2C(=O)O)C1 [Example 160, 2-({6-[(1,3-Benzothiazol-2-yl)amino]-5-methylpyridazin-3-yl}(methyl)amino)-5-[1-(ethylcarbamoyl)azetidin-3-yl]-1,3-thiazole-4-carboxylic acid] |
